# According to paper PMC8003416, “Modulation of Human Phenylalanine Hydroxylase by 3-Hydroxyquinolin-2(1H)-One Derivatives” (Biomolecules, 2021):
# Experiments:
# [1] = Alamar Blue cell viability assay; type: cell-based; conditions: human, HEK-293T cells
# Procedure: Cytotoxicity of selected 3HQs was assessed in HEK-293T cells using the Alamar Blue assay as a general cell viability endpoint method that monitors the cellular metabolic state, and the propidium iodide (PI) exclusion assay was used to evaluate membrane integrity essentially as described. The 3HQs were tested at a final concentration of 50 and 100 μM (two independent assays; five replicates each). Control assays were performed using 1% DMSO (negative control), or SDS at 1 mg/mL as a positive control of cell death in the PI assay. HEK-293T cells were seeded in sterile flat bottom 96-well tissue culture plates, in RPMI 1640 culture medium, supplemented with 10% fetal bovine serum, 100 units/mL of penicillin G (sodium salt), 100 μg/mL of streptomycin sulphate and 2 mM L-glutamine, at a cell density of 2 × 10^4 cells per well. Cells were incubated at 37 °C and 5% CO2. The culture medium was replaced by fresh medium (supplemented as above) containing the different 3HQs to be analyzed. After 24 h incubation, the culture medium was replaced by […] PI (Sigma-Aldrich) in fresh medium (stock solution 1.5 mM in DMSO) and fluorescence was measured (λexc 485 nm, λem 590 nm) in a FLUOstar Omega microplate reader. The Alamar Blue assay was performed by replacing the culture medium with fresh medium containing 5 mM resazurin (Invitrogen). The cells were further incubated for 3 h and fluorescence was measured (λexc 530 nm, λem 590 nm) in a FLUOstar Omega microplate reader (BMG Labtech). The relative PI uptake and cell viability (%) were calculated using Equations (3) and (4), respectively. Relative PI uptake = Fluorescence intensitysample/Fluorescence intensitynegative control(3) Relative cell viability (%) = Fluorescence intensitysample/Fluorescence intensitycontrol × 100(4)
# [2] = target: T1, hPAH transiently expressed in HEK-293T cells (Homo sapiens, UniProt P00439); test: hPAH activity and protein level in transfected HEK-293T cells; type: cell-based; conditions: 24 h; for hPAH protein content after translation block / increase in hPAH expression (protein level): 50 μM; for hPAH protein content after translation block: then 10 μg/mL puromycin, 1, 3, 6 h; for increase in hPAH expression (protein level): western blot normalized to GAPDH; for hPAH activity in cell lysate: 50 and 100 μM, vs DMSO
# T1 construct: expressed in transfected cells; host or cells: HEK-293T (ATCC CRL-11268)
# T1 sequence (P00439 1-452): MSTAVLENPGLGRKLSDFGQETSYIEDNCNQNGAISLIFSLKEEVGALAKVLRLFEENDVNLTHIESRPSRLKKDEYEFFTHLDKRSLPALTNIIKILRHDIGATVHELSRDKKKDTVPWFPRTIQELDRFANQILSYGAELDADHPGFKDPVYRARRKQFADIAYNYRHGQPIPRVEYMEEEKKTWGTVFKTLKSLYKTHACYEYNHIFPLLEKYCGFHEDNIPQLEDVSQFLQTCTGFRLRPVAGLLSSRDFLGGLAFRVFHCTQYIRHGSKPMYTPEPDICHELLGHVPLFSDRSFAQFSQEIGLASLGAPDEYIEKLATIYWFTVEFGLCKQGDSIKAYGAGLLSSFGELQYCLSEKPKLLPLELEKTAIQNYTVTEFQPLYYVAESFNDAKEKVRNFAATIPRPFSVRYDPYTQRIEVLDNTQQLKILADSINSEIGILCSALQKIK
# Procedure: HEK-293T cells (ATCC CRL-11268) were grown in RPMI 1640 medium (Gibco Life Technologies¸ Carlsbad, CA, USA) and supplemented with heat inactivated (60 °C for 30 min) fetal bovine serum (10%; v/v), penicillin (100 U/mL) and streptomycin (0.1 mg/mL) at 37 °C, in 5% CO2 in a humidified atmosphere. 1 × 10^5 cells were transfected with 750 ng of DNA (eukaryotic vector expressing hPAH; pEF-DEST51-PAH-WT) using lipofectamine (Invitrogen) as the transfection agent. Compounds (50 and 100 μM) or DMSO (0.5 and 1%) were added 4 h after transfection, and cells were further incubated for 24 h. For sample collection cells were trypsinized with 500 μL of TripLE Express (Gibco Life Technologies), centrifuged at 200× g for 5 min, at 4 °C, and washed with PBS. The pellet was resuspended in 50 μL of PBS with 200 μM PMSF and cells were disrupted by passage (≈20×) through a fine needle. The cell debris were removed by centrifugation at 14,000× g for 5 min at 4 °C and the obtained cell lysates were used for enzymatic activity assays and western blot analysis. Three independent cell cultures were performed.
# For the stability assays, after 24 h incubation with compounds, protein translation was stopped by the addition of 10 μg/mL puromycin (Sigma-Aldrich). Cells were collected at 0, 1, 3, and 6 h after blockage of translation. Two independent cell cultures were performed.
# The hPAH activity of cell lysates was measured essentially as described in [26] in a final volume of 200 μL containing 1 mM L-Phe, 250 mM Na-Hepes, pH 7, 0.1 mg/mL catalase and 20 μL of cell lysate. After 4 min of pre-incubation, 100 μM (NH4)2Fe(II)SO4 was added to the mixture. Two min after ferrous ammonium sulphate addition, the reaction was initiated by the injection of BH4 (75 μM). Tyrosine production was assessed by measuring the increase in fluorescence intensity (λexc 274 nm and λem 304 nm) in a FLUOstar Omega microplate reader (BMG Labtech), at 25 °C, during 30 min. Enzyme activity was determined as the amount of L-Tyr produced per min per mg of total protein. For each cell culture enzymatic assays were performed in triplicate.
# For western blot analysis of cell lysates, 4 μg of total protein were applied on an 8 to 16% mini-protean TGX precast polyacrylamide gel (Bio-Rad), and the proteins were transferred to a polyvinylidene fluoride (PVDF; GE Healthcare) membrane and visualized by immunodetection using mouse anti-PAH (MAB 5278; Millipore; Burlington, MA, USA) and mouse anti-glyceraldehyde 3-phosphate dehydrogenase (GAPDH (loading control); sc-365062, Santa Cruz Biotechnology; Dallas, TX, USA) as the primary antibodies and the anti-mouse IgG-HRP (W402B, Promega; Madison, WI, USA) as the secondary antibody. Immunoblots were developed with enhanced chemiluminescent agents (ECL Prime; GE Healthcare) and the images were acquired in a charge-coupled device imager ChemiDoc XRS (Bio-Rad) using the Quantity One software (Bio-Rad).
SMILES,"viability at 24 h, 50 µM [1] [%]","viability at 24 h, 100 µM [1] [%]",hPAH protein content after translation block [2],increase in hPAH expression (protein level) [2],hPAH activity in cell lysate [2]
COC(=O)CC[C@H](NC(=O)c1c(O)c(=O)[nH]c2ccc(OC(F)(F)F)cc12)C(=O)OC [Compound 9],85 ± 32,82 ± 13,hPAH protein content is maintained as a function of time,1.8 fold,higher activity
COC(=O)CNC(=O)c1c(O)c(=O)[nH]c2ccc(OC(F)(F)F)cc12 [Compound 11],94 ± 3,101 ± 5,hPAH protein content is maintained as a function of time,did not affect the hPAH protein levels,higher activity
